What was measured:
Type in all cases: binding
[1] = test system: human monoclonal antibody CR57
[2] = test system: human monoclonal antibody CRJA
[3] = test system: human monoclonal antibody CRJA; remark: listed apart in the source
[4] = test system: human monoclonal antibody CRJB
[5] = test system: human monoclonal antibody CRJB; remark: listed apart in the source
[6] = test system: human monoclonal antibody CR57; remark: listed apart in the source

Sequence	Binding of CR57 to linear peptide (PEPSCAN-ELISA signal) [1]	Binding of CRJA to linear peptide (PEPSCAN-ELISA signal) [2]	Binding of CRJA (10 μg/ml) to looped/cyclic peptide (PEPSCAN-ELISA) [3]	Binding of CRJB (10 μg/ml) to looped/cyclic peptide (PEPSCAN-ELISA) [4]	Binding of CRJB to linear peptide (PEPSCAN-ELISA signal) [5]	Binding of CR57 (10 μg/ml) to looped/cyclic peptide (PEPSCAN-ELISA) [6]	Binding of CRJA (10 μg/ml) to looped/cyclic peptide (PEPSCAN-ELISA signal) [3]	Binding of CRJB (10 μg/ml) to looped/cyclic peptide (PEPSCAN-ELISA signal) [4]	Binding of CR57 (10 μg/ml) to looped/cyclic peptide (PEPSCAN-ELISA signal) [6]	Binding of human monoclonal antibody CR57 to linear peptide (PEPSCAN-ELISA signal) [1]	Binding of human monoclonal antibody CRJA to linear peptide (PEPSCAN-ELISA signal) [2]	Binding of CRJA to looped/cyclic peptide (PEPSCAN-ELISA signal) [3]	Binding of CRJB to looped/cyclic peptide (PEPSCAN-ELISA signal) [4]	Binding of human monoclonal antibody CRJB to linear peptide (PEPSCAN-ELISA signal) [5]	Binding of CR57 to looped/cyclic peptide (PEPSCAN-ELISA signal) [6]	binding of antibody CR57 to looped/cyclic peptide (PEPSCAN OD) [6]
LMDGTWVAMQTSNET	96	102	92	76	106	106	–	–	–	–	–	–	–	–	–	–
SHLRKLVPGFGKAYT	113	118	160	103	132	143	–	–	–	–	–	–	–	–	–	–
GCLRVGGRCHPHVNG	85	98	105	112	125	103	–	–	–	–	–	–	–	–	–	–
MDGTWVAMQTSNETK	97	85	90	82	97	114	–	–	–	–	–	–	–	–	–	–
NPYPDYRWLRTVKTT	85	106	–	–	102	–	84	92	89	–	–	–	–	–	–	–
ALESIMTTKSVSFRR	97	107	108	111	132	136	–	–	–	–	–	–	–	–	–	–
VNGVFFNGIILGPDG	68	94	78	96	116	90	–	–	–	–	–	–	–	–	–	–
HPHVNGVFFNGIILG	104	89	91	99	138	104	–	–	–	–	–	–	–	–	–	–
RAAYNWKMAGDPRYE	90	92	–	–	130	–	86	101	141	–	–	–	–	–	–	–
LSHLRKLVPGFGKAY	96	93	93	123	139	121	–	–	–	–	–	–	–	–	–	–
KSLKGACKLKLCGVL	129	91	113	97	113	106	–	–	–	–	–	–	–	–	–	–
FKRKHFRPTPDACRA	64	86	–	–	92	–	86	72	148	–	–	–	–	–	–	–
SVSFRRLSHLRKLVP	64	101	98	84	123	94	–	–	–	–	–	–	–	–	–	–
LMEADAHYKSVRTWN	73	46	43	72	107	41	–	–	–	–	–	–	–	–	–	–
DIHHLSCPNNLVVED	38	61	–	–	96	–	62	48	52	–	–	–	–	–	–	–
KMNGFTCTGVVTEAE	76	90	–	–	104	–	83	71	77	–	–	–	–	–	–	–
DEAEDFVEVHLPDVH	–	–	–	–	–	–	–	–	–	68	105	98	104	136	89	–
SRGKRASKGSETCGF	64	70	–	–	93	–	82	86	96	–	–	–	–	–	–	–
HLVVEELVRKREECL	82	111	110	105	123	110	–	–	–	–	–	–	–	–	–	–
CGVLGLRLMDGTWVA	99	96	101	91	117	110	–	–	–	–	–	–	–	–	–	–
ELKVGYILAIKMNGF	87	84	–	–	132	–	93	83	84	–	–	–	–	–	–	–
YTIWMPENPRLGMSC	97	111	–	–	132	–	93	132	191	–	–	–	–	–	–	clearly bound
PSKGCLRVGGRCHPH	69	78	71	99	138	92	–	–	–	–	–	–	–	–	–	–
LPDVHNQVSGVDLGL	–	–	–	–	–	–	–	–	–	104	97	98	118	154	116	–
PRYEESLHNPYPDYR	73	103	–	–	115	–	99	79	92	–	–	–	–	–	–	–
PYDRSLHSRVFPSGK	86	104	–	–	120	–	113	90	134	–	–	–	–	–	–	–
NQVSGVDLGLPNWGK	–	–	–	–	–	–	–	–	–	78	103	79	128	138	84	–
GYILAIKMNGFTCTG	75	73	–	–	90	–	72	61	87	–	–	–	–	–	–	–
EIEHLVVEELVRKRE	82	86	93	89	113	107	–	–	–	–	–	–	–	–	–	–
